Results reported in patent US11000033B2, “Ketone or oxime compound, and herbicide” (NISSAN CHEMICAL CORPORATION, priority 2014, dated 2021).

Key:
Format in all cases: in vivo
[1] = test system: rapeseed; assay: Test Example 5: effect on crop by foliage application, plastic box (symbol g); settings: 320 g/ha, 3 weeks after application
Outline: (§1)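 Box culture: sterile diluvial soil, seeds spot-sown, ~1.5 cm cover, raised under glass at 25–30° C.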

[2] = test system: corn; assay: Test Example 4: effect on crop by soil treatment (symbol c); settings: for c: corn, effect on crop grade: application herbicide amount 320 g/ha
Outline: (§2)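 Greenhouse culture at 25° C. to 30° C. followed sowing of seed in spots on sterilized diluvial soil with a soil cover close to 1.5 cm thick.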

[3] = test system: Amaranthus retroflexus; assay: Test Example 5: herbicidal effect by foliage application, plastic box (symbol N); settings: 320 g/ha, 3 weeks after application
Outline: (§3)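 Visual herbicidal score, taken three weeks post-application, of seedlings sprayed on the foliage with water-diluted emulsion at a predetermined amount; plants were 14 days old, greenhouse-raised at 25° C. to 30° C.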

[4] = test system: wheat; assay: Test Example 4: effect on crop by soil treatment (symbol e); settings: for e: wheat, effect on crop grade: application herbicide amount 320 g/ha
Outline: as §2

[5] = test system: Apera spica-venti; assay: Test Example 4: herbicidal effect by soil treatment (symbol L); settings: application herbicide amount 320 g/ha
Outline: (§4)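 Seeds were sown in sterilized diluvial soil, covered with about 1.5 cm of soil, and the soil surface was sprayed with a water-diluted emulsion of the compound at a predetermined rate. Plants grew in a greenhouse at 25° C. to 30° C.; effects were scored visually 3 weeks after application.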

[6] = test system: Veronica persica; assay: Test Example 4: herbicidal effect by soil treatment (symbol R)
Outline: as §4

[7] = test system: Echinochloa crus-galli var. crus-galli; assay: Test Example 5: herbicidal effect by foliage application, plastic box (symbol H); settings: 320 g/ha, 3 weeks after application
Outline: as §3

[8] = test system: Avena fatua; assay: Test Example 5: herbicidal effect by foliage application, plastic box (symbol I); settings: 320 g/ha, 3 weeks after application
Outline: as §3

[9] = test system: Apera spica-venti; assay: Test Example 5: herbicidal effect by foliage application, plastic box (symbol L); settings: 320 g/ha, 3 weeks after application
Outline: as §3

[10] = test system: soybean; assay: Test Example 4: effect on crop by soil treatment (symbol d); settings: for d: soybean, effect on crop grade: application herbicide amount 320 g/ha
Outline: as §2

[11] = test system: beet; assay: Test Example 5: effect on crop by foliage application, plastic box (symbol f); settings: 320 g/ha, 3 weeks after application
Outline: as §1

[12] = test system: Lolium multiflorum Lam.; assay: Test Example 5: herbicidal effect by foliage application, plastic box (symbol K); settings: 320 g/ha, 3 weeks after application
Outline: as §3

[13] = test system: Echinochloa crus-galli var. crus-galli; assay: Test Example 3: herbicidal effect by foliage application, Wagner pot (symbol H); settings: application herbicide amount 320 g/ha
Outline: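 Post-emergence, paddy-type test: seedlings 14 d old in shallow-flooded (0.1–0.5 cm) alluvial soil, 25–30 °C greenhouse. Emulsion diluted to target rate, sprayed on leaves. Read-out: visual effect on each species at 3 weeks, per set criteria.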

[14] = test system: Scirpus juncoides; assay: Test Example 2: herbicidal activity, application during weed generation in submerged conditions (symbol B); settings: Table 23; application herbicide amount 320 g/ha; grade 0-5 by criteria of Test Example 1
Outline: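 Steps: fill pots with alluvial soil; add water to 4 cm depth; co-sow the three weeds; grow at 25° C. to 30° C. under glass; at 1–2 leaves, dose the floodwater with diluted emulsion; rate damage visually after 3 weeks.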

[15] = test system: Stellaria media; assay: Test Example 4: herbicidal effect by soil treatment (symbol P)
Outline: as §4

[16] = application herbicide amount 320 g/ha

SMILES: CON=C(C)CC1CC(O)=C(c2c(C)cc(-c3ccc(Cl)cc3)cc2C)C1=O (mixture of isomers) [6-029]
- g: rapeseed, effect on crop grade [1]: 4 (Herbicidal ratio of 70% or higher and lower than 90%)
- c: corn, effect on crop grade [2]: 2 (Herbicidal ratio of 20% or higher and lower than 40%)
- N: Amaranthus retroflexus, herbicidal effect grade [3]: 5 (Herbicidal ratio of 90% or more (almost completely withered))
- e: wheat, effect on crop grade [4]: 4 (Herbicidal ratio of 70% or higher and lower than 90%)
- L: Apera spica-venti, herbicidal effect grade [5]: 5 (Herbicidal ratio of 90% or more (almost completely withered))
- R: Veronica persica, herbicidal effect grade [6, 16]: 4 (Herbicidal ratio of 70% or higher and lower than 90%)
- H: Echinochloa crus-galli var. crus-galli, herbicidal effect grade [7]: 5 (Herbicidal ratio of 90% or more (almost completely withered))
- I: Avena fatua, herbicidal effect grade [8]: 5 (Herbicidal ratio of 90% or more (almost completely withered))
- L: Apera spica-venti, herbicidal effect grade [9]: 5 (Herbicidal ratio of 90% or more (almost completely withered))
- d: soybean, effect on crop grade [10]: 0 (Herbicidal ratio of 5% or lower (almost no effect))
- f: beet, effect on crop grade [11]: 0 (Herbicidal ratio of 5% or lower (almost no effect))
- K: Lolium multiflorum Lam., herbicidal effect grade [12]: 5 (Herbicidal ratio of 90% or more (almost completely withered))
- herbicidal effect on H (Echinochloa crus-galli var. crus-galli), grade 0-5 [13]: 5 (Herbicidal ratio of 90% or more (almost completely withered))
- Herbicidal effect grade, B: Scirpus juncoides [14]: 3 (Herbicidal ratio of 40% or higher and lower than 70%)

SMILES: CON=C(C)CC1CC(OS(=O)(=O)c2ccc(C)cc2)=C(c2c(C)cc(C)cc2C)C1=O (centres unmarked) [1-161]
- g: rapeseed, effect on crop grade [1]: 3 (Herbicidal ratio of 40% or higher and lower than 70%)
- c: corn, effect grade on crop ([2]; 320 g/ha): 0 (Herbicidal ratio of 5% or lower (almost no effect))
- P: Stellaria media, herbicidal effect grade ([15]; 320 g/ha): 0 (Herbicidal ratio of 5% or lower (almost no effect))
- N: Amaranthus retroflexus, herbicidal effect grade [3]: 0 (Herbicidal ratio of 5% or lower (almost no effect))
- e: wheat, effect grade on crop ([4]; 320 g/ha): 3 (Herbicidal ratio of 40% or higher and lower than 70%)
- R: Veronica persica, herbicidal effect grade ([6]; 320 g/ha): 0 (Herbicidal ratio of 5% or lower (almost no effect))
- H: Echinochloa crus-galli var. crus-galli, herbicidal effect grade [7]: 4 (Herbicidal ratio of 70% or higher and lower than 90%)
- I: Avena fatua, herbicidal effect grade [8]: 4 (Herbicidal ratio of 70% or higher and lower than 90%)
- L: Apera spica-venti, herbicidal effect grade [9]: 5 (Herbicidal ratio of 90% or more (almost completely withered))
- d: soybean, effect grade on crop ([10]; 320 g/ha): 0 (Herbicidal ratio of 5% or lower (almost no effect))
- f: beet, effect on crop grade [11]: 0 (Herbicidal ratio of 5% or lower (almost no effect))
- K: Lolium multiflorum Lam., herbicidal effect grade [12]: 5 (Herbicidal ratio of 90% or more (almost completely withered))
- herbicidal effect on H (Echinochloa crus-galli var. crus-galli), grade 0-5 [13]: 4 (Herbicidal ratio of 70% or higher and lower than 90%)
- Herbicidal effect grade, B: Scirpus juncoides [14]: 4 (Herbicidal ratio of 70% or higher and lower than 90%)

SMILES: CCCC(=O)C(C(=O)OC)C1CC(O)=C(c2c(C)cc(C)cc2C)C1=O (centres unmarked) [2-020]
- g: rapeseed, effect on crop grade [1]: 0 (Herbicidal ratio of 5% or lower (almost no effect))
- c: corn, effect on crop grade [2]: 3 (Herbicidal ratio of 40% or higher and lower than 70%)
- N: Amaranthus retroflexus, herbicidal effect grade [3]: 0 (Herbicidal ratio of 5% or lower (almost no effect))
- e: wheat, effect on crop grade [4]: 0 (Herbicidal ratio of 5% or lower (almost no effect))
- L: Apera spica-venti, herbicidal effect grade [5]: 0 (Herbicidal ratio of 5% or lower (almost no effect))
- R: Veronica persica, herbicidal effect grade [6, 16]: 0 (Herbicidal ratio of 5% or lower (almost no effect))
- H: Echinochloa crus-galli var. crus-galli, herbicidal effect grade [7]: 4 (Herbicidal ratio of 70% or higher and lower than 90%)
- I: Avena fatua, herbicidal effect grade [8]: 0 (Herbicidal ratio of 5% or lower (almost no effect))
- L: Apera spica-venti, herbicidal effect grade [9]: 0 (Herbicidal ratio of 5% or lower (almost no effect))
- d: soybean, effect on crop grade [10]: 0 (Herbicidal ratio of 5% or lower (almost no effect))
- f: beet, effect on crop grade [11]: 0 (Herbicidal ratio of 5% or lower (almost no effect))
- K: Lolium multiflorum Lam., herbicidal effect grade [12]: 5 (Herbicidal ratio of 90% or more (almost completely withered))
- herbicidal effect on H (Echinochloa crus-galli var. crus-galli), grade 0-5 [13]: 2 (Herbicidal ratio of 20% or higher and lower than 40%)
- Herbicidal effect grade, B: Scirpus juncoides [14]: 0 (Herbicidal ratio of 5% or lower (almost no effect))

SMILES: CCC(=O)CCC1CC(OC)=C(c2c(C)cc(C)cc2C)C1=O (centres unmarked) [5-002]
- c: corn, effect on crop grade [2]: 0 (Herbicidal ratio of 5% or lower (almost no effect))
- N: Amaranthus retroflexus, herbicidal effect grade [3]: 0 (Herbicidal ratio of 5% or lower (almost no effect))
- e: wheat, effect on crop grade [4]: 0 (Herbicidal ratio of 5% or lower (almost no effect))
- L: Apera spica-venti, herbicidal effect grade [5]: 0 (Herbicidal ratio of 5% or lower (almost no effect))
- R: Veronica persica, herbicidal effect grade [6, 16]: 0 (Herbicidal ratio of 5% or lower (almost no effect))
- H: Echinochloa crus-galli var. crus-galli, herbicidal effect grade [7]: 0 (Herbicidal ratio of 5% or lower (almost no effect))
- I: Avena fatua, herbicidal effect grade [8]: 0 (Herbicidal ratio of 5% or lower (almost no effect))
- L: Apera spica-venti, herbicidal effect grade [9]: 0 (Herbicidal ratio of 5% or lower (almost no effect))
- d: soybean, effect on crop grade [10]: 0 (Herbicidal ratio of 5% or lower (almost no effect))
- f: beet, effect on crop grade [11]: 0 (Herbicidal ratio of 5% or lower (almost no effect))
- K: Lolium multiflorum Lam., herbicidal effect grade [12]: 0 (Herbicidal ratio of 5% or lower (almost no effect))
- herbicidal effect on H (Echinochloa crus-galli var. crus-galli), grade 0-5 [13]: 0 (Herbicidal ratio of 5% or lower (almost no effect))
- Herbicidal effect grade, B: Scirpus juncoides [14]: 0 (Herbicidal ratio of 5% or lower (almost no effect))

SMILES: CON=C(C)CC1CC(O)=C(c2c(C)cc(Br)cc2C)C1=O (centres unmarked) [6-003]
- g: rapeseed, effect on crop grade [1]: 4 (Herbicidal ratio of 70% or higher and lower than 90%)
- c: corn, effect on crop grade [2]: 4 (Herbicidal ratio of 70% or higher and lower than 90%)
- P: Stellaria media, herbicidal effect grade [15, 16]: 0 (Herbicidal ratio of 5% or lower (almost no effect))
- N: Amaranthus retroflexus, herbicidal effect grade [3]: 0 (Herbicidal ratio of 5% or lower (almost no effect))
- e: wheat, effect on crop grade [4]: 0 (Herbicidal ratio of 5% or lower (almost no effect))
- L: Apera spica-venti, herbicidal effect grade [5]: 5 (Herbicidal ratio of 90% or more (almost completely withered))
- H: Echinochloa crus-galli var. crus-galli, herbicidal effect grade [7]: 5 (Herbicidal ratio of 90% or more (almost completely withered))
- I: Avena fatua, herbicidal effect grade [8]: 5 (Herbicidal ratio of 90% or more (almost completely withered))
- L: Apera spica-venti, herbicidal effect grade [9]: 5 (Herbicidal ratio of 90% or more (almost completely withered))
- d: soybean, effect on crop grade [10]: 0 (Herbicidal ratio of 5% or lower (almost no effect))
- f: beet, effect on crop grade [11]: 0 (Herbicidal ratio of 5% or lower (almost no effect))
- K: Lolium multiflorum Lam., herbicidal effect grade [12]: 5 (Herbicidal ratio of 90% or more (almost completely withered))
- herbicidal effect on H (Echinochloa crus-galli var. crus-galli), grade 0-5 [13]: 5 (Herbicidal ratio of 90% or more (almost completely withered))
- Herbicidal effect grade, B: Scirpus juncoides [14]: 1 (Herbicidal ratio of 5% or higher and lower than 20%)

SMILES: CON=C(C)CC1CC(O)=C(c2c(C)cc(-c3ccccc3)cc2C)C1=O (centres unmarked) [6-015]
- g: rapeseed, effect on crop grade [1]: 4 (Herbicidal ratio of 70% or higher and lower than 90%)
- c: corn, effect on crop grade [2]: 5 (Herbicidal ratio of 90% or more (almost completely withered))
- P: Stellaria media, herbicidal effect grade [15, 16]: 2 (Herbicidal ratio of 20% or higher and lower than 40%)
- N: Amaranthus retroflexus, herbicidal effect grade [3]: 2 (Herbicidal ratio of 20% or higher and lower than 40%)
- e: wheat, effect on crop grade [4]: 0 (Herbicidal ratio of 5% or lower (almost no effect))
- L: Apera spica-venti, herbicidal effect grade [5]: 5 (Herbicidal ratio of 90% or more (almost completely withered))
- H: Echinochloa crus-galli var. crus-galli, herbicidal effect grade [7]: 5 (Herbicidal ratio of 90% or more (almost completely withered))
- I: Avena fatua, herbicidal effect grade [8]: 4 (Herbicidal ratio of 70% or higher and lower than 90%)
- L: Apera spica-venti, herbicidal effect grade [9]: 5 (Herbicidal ratio of 90% or more (almost completely withered))
- d: soybean, effect on crop grade [10]: 0 (Herbicidal ratio of 5% or lower (almost no effect))
- f: beet, effect on crop grade [11]: 0 (Herbicidal ratio of 5% or lower (almost no effect))
- K: Lolium multiflorum Lam., herbicidal effect grade [12]: 5 (Herbicidal ratio of 90% or more (almost completely withered))
- herbicidal effect on H (Echinochloa crus-galli var. crus-galli), grade 0-5 [13]: 5 (Herbicidal ratio of 90% or more (almost completely withered))
- Herbicidal effect grade, B: Scirpus juncoides [14]: 5 (Herbicidal ratio of 90% or more (almost completely withered))
